According to ChEMBL document CHEMBL3400074, “Development of 2-amino-5-phenylthiophene-3-carboxamide derivatives as novel inhibitors of Mycobacterium tuberculosis DNA GyrB domain” (Bioorg Med Chem, 2015):
In brackets after ≈: the same amount, converted by molar mass.

What follows are molecules tested on Mycobacterium tuberculosis (assay: Antibacterial activity against multidrug-resistant Mycobacterium tuberculosis H37Rv ATCC 27294 after 28 days by agar dilution method). Conditions: H37Rv ATCC 27294, 672 h.
Type: functional
Work on `NC(=O)c1cc(-c2ccccc2)sc1NC(=O)Nc1ccc(F)cc1` yielded an MIC of 17.6 µM (≈ 6.25 µg/mL). In the case of `NC(=O)c1cc(-c2ccccc2)sc1NC(=O)c1ccc([N+](=O)[O-])cc1`, the MIC is reported as 8.48 µM (≈ 3.12 µg/mL). In the case of `NC(=O)c1cc(-c2ccccc2)sc1NC(=O)c1cc2ccccc2[nH]1`, the MIC is reported as 34.6 µM (≈ 12.5 µg/mL). `CC[C@@H](CO)NCCN[C@@H](CC)CO` [ETHAMBUTOL] gave an MIC of 7.64 µM (≈ 1.56 µg/mL). With `NC(=O)c1cc(-c2ccccc2)sc1NC(=S)Nc1ccc([N+](=O)[O-])cc1` the MIC was 78.5 µM (≈ 31.3 µg/mL). `NC(=O)c1cc(-c2ccccc2)sc1NC(=O)c1ccc(Oc2ccccc2)cc1` showed an MIC of 15.1 µM (≈ 6.25 µg/mL). `NC(=O)c1cc(-c2ccccc2)sc1NC(=O)C1CCCCC1` gave an MIC of 9.48 µM (≈ 3.11 µg/mL). With `NC(=O)c1cc(-c2ccccc2)sc1NC(=O)Nc1ccccc1` the MIC was 9.27 µM (≈ 3.13 µg/mL). Molecule `NC(=O)c1cc(-c2ccccc2)sc1NC(=O)c1ccc(Cl)cc1` has an MIC of 8.76 µM (≈ 3.13 µg/mL). For `NC(=O)c1cc(-c2ccccc2)sc1NC(=O)Nc1ccc([N+](=O)[O-])cc1`, the MIC was 16.3 µM (≈ 6.24 µg/mL). `NC(=O)c1cc(-c2ccccc2)sc1NC(=S)Nc1ccc(Br)cc1` gave an MIC of 18 µM (≈ 7.78 µg/mL). In the case of `CCCC(=O)Nc1sc(-c2ccccc2)cc1C(N)=O`, the MIC is reported as 10.8 µM (≈ 3.13 µg/mL). With `NC(=O)c1cc(-c2ccccc2)sc1NC(=O)C1CCCC1` the MIC was 39.7 µM (≈ 12.5 µg/mL). Work on `NC(=O)c1cc(-c2ccccc2)sc1NC(=S)Nc1ccc(F)cc1` yielded an MIC of 67.4 µM (≈ 25 µg/mL). In the case of `CC(C)NC(=S)Nc1sc(-c2ccccc2)cc1C(N)=O`, the MIC is reported as 19.6 µM (≈ 6.26 µg/mL). For `NC(=O)c1cc(-c2ccccc2)sc1NC(=S)Nc1ccccc1`, the MIC was 70.8 µM (≈ 25 µg/mL). Molecule `CC(=O)Nc1sc(-c2ccccc2)cc1C(N)=O` has an MIC of 24 µM (≈ 6.26 µg/mL). `NC(=O)c1cc(-c2ccccc2)sc1NC(=O)c1ccccc1` was tested, and the MIC was 4.84 µM (≈ 1.56 µg/mL). Work on `NNC(=O)c1ccncc1` [ISONIAZID] yielded an MIC of 0.66 µM (≈ 0.0905 µg/mL). `NC(=O)c1cc(-c2ccccc2)sc1NC(=O)Nc1ccc(Br)cc1` was tested, and the MIC was 15 µM (≈ 6.25 µg/mL). For `NC(=O)c1cc(-c2ccccc2)sc1NC(=O)Nc1ccc(Cl)cc1`, the MIC was 8.42 µM (≈ 3.13 µg/mL). For `CCC(=O)Nc1sc(-c2ccccc2)cc1C(N)=O`, the MIC was 22.8 µM (≈ 6.26 µg/mL). In the case of `NC(=O)c1cc(-c2ccccc2)sc1NC(=S)NCc1ccccc1`, the MIC is reported as 34 µM (≈ 12.5 µg/mL). In the case of `CC(C)NC(=O)Nc1sc(-c2ccccc2)cc1C(N)=O`, the MIC is reported as 10.2 µM (≈ 3.11 µg/mL). `NC(=O)c1cc(-c2ccccc2)sc1NC(=O)c1cnccn1` gave an MIC of 38.6 µM (≈ 12.5 µg/mL). In the case of `NC(=O)c1cc(-c2ccccc2)sc1NC(=O)c1cccc2ccccc12`, the MIC is reported as 25 µM (≈ 9.3 µg/mL). For `CC1COc2c(N3CCN(C)CC3)c(F)cc3c(=O)c(C(=O)O)cn1c23` (configuration not stated) [OFLOXACIN], the MIC was 2.16 µM (≈ 0.781 µg/mL). In the case of `NC(=O)c1cc(-c2ccccc2)sc1NC(=S)Nc1ccc(Cl)cc1`, the MIC is reported as 80.7 µM (≈ 31.3 µg/mL). Work on `Cc1ccc(NC(=S)Nc2sc(-c3ccccc3)cc2C(N)=O)cc1` yielded an MIC of 8.5 µM (≈ 3.12 µg/mL). Molecule `CO[C@H]1/C=C/O[C@@]2(C)Oc3c(C)c(O)c4c(O)c(c(/C=N/N5CCN(C)CC5)c(O)c4c3C2=O)NC(=O)/C(C)=C\C=C\[C@H](C)[C@H](O)[C@@H](C)[C@@H](O)[C@@H](C)[C@H](OC(C)=O)[C@@H]1C` [RIFAMPIN] has an MIC of 0.23 µM (≈ 0.189 µg/mL). `NC(=O)c1cc(-c2ccccc2)sc1NC(=O)NCc1ccccc1` gave an MIC of 18.5 µM (≈ 6.5 µg/mL). `Cc1ccc(NC(=O)Nc2sc(-c3ccccc3)cc2C(N)=O)cc1` gave an MIC of 35.6 µM (≈ 12.5 µg/mL).
